Consider 28 compounds from patent US9815839B2, “N-(1-(substituted-phenyl)ethyl)-9H-purin-6-amines as PI3K inhibitors” (Incyte Corporation, priority 2010, dated 2017).

For experiment [1], the system named is Pfeiffer cell line (diffuse large B cell lymphoma). The experiment is described as follows: Pfeiffer cell proliferation assay. The experiment is classed as cell-based. The note with it: Homo sapiens, Pfeiffer, Pfeiffer cells, 3-4 days plus 12 hours [3H]-thymidine incorporation. How it is done:
Example C: Pfeiffer Cell Proliferation Assay
Pfeiffer cell line (diffuse large B cell lymphoma) was purchased from ATCC (Manassas, Va.) and maintained in the culture medium recommended (RPMI and 10% FBS). To measure the anti-proliferation activity of the compounds, the Pfeiffer cells were plated with the culture medium (2×10^3 cells/well/per 200 μl) into 96-well ultra-low binding plates (Corning, Corning, N.Y.), in the presence or absence of a concentration range of test compounds. After 3-4 days, [^3H]-thymidine (1 μCi/well) (PerkinElmer, Boston, Mass.) in PBS was then added to the cell culture for an additional 12 hours before the incorporated radioactivity was separated by filtration with water through GF/B filters (Packard Bioscience, Meridenj, Conn.) and measured by liquid scintillation counting with a TopCount (Packard Bioscience).
On the technique in general: Dividing cells build labelled thymidine or BrdU into new DNA.

In another experiment the target is T1, PI3Kδ (p110δ/p85α) (Homo sapiens, UniProt O00329).
T1 construct: purchased Millipore (Bedford, Mass.)
T1 sequence (O00329 whole entry, species assumed): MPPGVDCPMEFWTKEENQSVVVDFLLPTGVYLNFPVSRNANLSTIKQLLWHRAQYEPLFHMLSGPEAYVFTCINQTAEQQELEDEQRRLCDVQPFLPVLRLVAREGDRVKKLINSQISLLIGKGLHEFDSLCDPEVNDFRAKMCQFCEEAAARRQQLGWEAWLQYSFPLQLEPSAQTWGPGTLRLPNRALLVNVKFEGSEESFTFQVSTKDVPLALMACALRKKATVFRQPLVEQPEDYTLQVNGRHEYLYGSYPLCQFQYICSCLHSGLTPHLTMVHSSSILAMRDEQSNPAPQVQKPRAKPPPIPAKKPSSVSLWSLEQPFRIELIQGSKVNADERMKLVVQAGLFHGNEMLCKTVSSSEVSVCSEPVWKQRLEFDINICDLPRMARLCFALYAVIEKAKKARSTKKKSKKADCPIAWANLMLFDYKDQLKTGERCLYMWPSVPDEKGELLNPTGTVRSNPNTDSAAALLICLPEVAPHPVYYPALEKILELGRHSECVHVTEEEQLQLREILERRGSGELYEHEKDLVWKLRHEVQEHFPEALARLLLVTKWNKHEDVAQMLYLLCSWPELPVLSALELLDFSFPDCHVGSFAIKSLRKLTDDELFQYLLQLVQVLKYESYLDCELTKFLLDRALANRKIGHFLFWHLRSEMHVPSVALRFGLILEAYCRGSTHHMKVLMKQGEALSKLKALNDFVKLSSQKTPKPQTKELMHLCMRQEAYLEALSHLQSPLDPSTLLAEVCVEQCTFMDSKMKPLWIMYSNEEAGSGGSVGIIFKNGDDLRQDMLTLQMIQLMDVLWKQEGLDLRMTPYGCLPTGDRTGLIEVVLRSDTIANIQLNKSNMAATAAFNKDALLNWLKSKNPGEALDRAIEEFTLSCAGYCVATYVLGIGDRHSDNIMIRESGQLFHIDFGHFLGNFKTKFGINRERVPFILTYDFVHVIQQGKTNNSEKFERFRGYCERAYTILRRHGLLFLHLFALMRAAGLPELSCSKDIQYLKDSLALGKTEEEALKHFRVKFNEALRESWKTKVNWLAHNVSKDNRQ
T1 sequence (P27986 whole entry partner, species assumed): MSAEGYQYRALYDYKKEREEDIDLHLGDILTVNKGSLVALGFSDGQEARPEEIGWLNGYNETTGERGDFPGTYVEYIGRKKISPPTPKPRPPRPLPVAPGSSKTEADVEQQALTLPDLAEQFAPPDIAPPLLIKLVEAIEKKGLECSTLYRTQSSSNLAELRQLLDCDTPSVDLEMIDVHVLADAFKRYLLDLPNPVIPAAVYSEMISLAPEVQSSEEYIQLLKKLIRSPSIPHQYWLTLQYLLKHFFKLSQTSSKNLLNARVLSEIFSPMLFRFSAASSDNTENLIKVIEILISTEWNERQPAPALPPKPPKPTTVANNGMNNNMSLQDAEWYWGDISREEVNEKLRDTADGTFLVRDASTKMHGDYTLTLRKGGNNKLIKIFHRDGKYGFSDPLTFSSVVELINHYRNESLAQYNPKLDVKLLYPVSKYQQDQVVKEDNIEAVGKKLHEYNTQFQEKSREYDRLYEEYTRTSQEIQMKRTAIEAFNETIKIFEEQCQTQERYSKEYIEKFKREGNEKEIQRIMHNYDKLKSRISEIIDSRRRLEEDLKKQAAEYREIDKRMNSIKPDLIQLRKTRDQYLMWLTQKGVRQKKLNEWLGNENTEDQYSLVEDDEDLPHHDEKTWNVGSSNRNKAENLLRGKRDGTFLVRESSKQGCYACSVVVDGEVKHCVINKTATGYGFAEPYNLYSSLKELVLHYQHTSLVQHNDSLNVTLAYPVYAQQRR
Nature of the experiment: PI3Kδ scintillation proximity assay. The experiment is classed as biochemical. The conditions noted are these: 20 μM ATP, 4 nM PI3Kδ. A digest of the protocol:
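Radiometric SPA: product captured on WGA beads after EDTA quench and counted, IC50 fitted against log inhibitor concentration. Reactions ran 210 min at room temperature with 4 nM PI3Kδ (p110δ/p85α), 20 μM each PIP2 and ATP plus 33P-ATP, pH 6.7 MOPS buffer, 0.5% DMSO final.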

Where a name gives a salt, the structure may show the parent alone.

As usually defined, the IC50 is the concentration needed to halve the response being measured. For `Cc1c(Cl)cc(C(C)Nc2ncnc3[nH]cnc23)c(-c2cccc(F)c2)c1C(N)=O` (centres unmarked) [Example 2, 4-Chloro-3′-fluoro-3-methyl-6-[1-(9H-purin-6-ylamino)ethyl]biphenyl-2-carboxamide], the IC50 in experiment [1] was less than 100 nM; at PI3Kδ (p110δ/p85α), less than 50 nM.

As to `Cc1c(Cl)cc(C(C)Nc2ncnc3[nH]cnc23)c(-c2cccc(F)c2)c1[N+](=O)[O-]` (centres unmarked) [Example 3, N-[1-(4-chloro-3′-fluoro-5-methyl-6-nitrobiphenyl-2-yl)ethyl]-9H-purin-6-amine], the IC50 in experiment [1] was greater than 1000 nM; at PI3Kδ (p110δ/p85α), 100 to 250 nM.

For the compound `Cc1c(Cl)cc(C(C)Nc2ncnc3[nH]cnc23)c(-c2cccc(F)c2)c1N1CCCC1=O` (centres unmarked) [Example 5, 1-{4-Chloro-3′-fluoro-3-methyl-6-[1-(9H-purin-6-ylamino)ethyl]biphenyl-2-yl}pyrrolidin-2-one], the half-maximal inhibitory concentration (IC50) in experiment [1] is less than 100 nM; at PI3Kδ (p110δ/p85α), less than 50 nM.

On to `Cc1c(Cl)cc(C(C)Nc2ncnc3[nH]cnc23)c(-c2cc(F)cc(F)c2)c1N1CCCC1=O` (centres unmarked) [Example 6, 1-{4-Chloro-3′,5′-difluoro-3-methyl-6-[1-(9H-purin-6-ylamino)ethyl]biphenyl-2-yl}pyrrolidin-2-one trifluoroacetate], for which the IC50 in experiment [1] is less than 100 nM; against PI3Kδ (p110δ/p85α) it was less than 50 nM.

With `Cc1c(Cl)cc(C(C)Nc2ncnc3[nH]cnc23)c(-c2cccc(F)c2)c1N1CCOC1=O` (centres unmarked) [Example 7, 3-{4-Chloro-3′-fluoro-3-methyl-6-[1-(9H-purin-6-ylamino)ethyl]biphenyl-2-yl}-1,3-oxazolidin-2-one], the IC50 in experiment [1] is less than 100 nM; on PI3Kδ (p110δ/p85α), less than 50 nM.

With `Cc1c(Cl)cc(C(C)Nc2ncnc3[nH]cnc23)c(-c2cccc(F)c2)c1-c1nnn[nH]1` (centres unmarked) [Example 8, N-{1-[4-chloro-3′-fluoro-5-methyl-6-(1H-tetrazol-5-yl)biphenyl-2-yl]ethyl}-9H-purin-6-amine], the concentration for half-maximal inhibition (IC50) was greater than 1000 nM in experiment [1] and less than 50 nM at PI3Kδ (p110δ/p85α).

With `CC(=O)Nc1c(C)c(Cl)cc(C(C)Nc2ncnc3[nH]cnc23)c1-c1cccc(F)c1` (centres unmarked) [Example 9, N-{4-chloro-3′-fluoro-3-methyl-6-[1-(9H-purin-6-ylamino)ethyl]biphenyl-2-yl}acetamide], the figures for the IC50 (in experiment [1]; at PI3Kδ (p110δ/p85α)) were 100 to 500 nM and 50 to 100 nM, respectively.

With `COC(=O)N(C(=O)OC)c1c(C)c(Cl)cc(C(C)Nc2ncnc3[nH]cnc23)c1-c1cccc(F)c1` (centres unmarked) [Example 10, Dimethyl {4-chloro-3′-fluoro-3-methyl-6-[1-(9H-purin-6-ylamino)ethyl]biphenyl-2-yl}imidodicarbonate], the values for the half-maximal inhibitory concentration (IC50) (in experiment [1]; against PI3Kδ (p110δ/p85α)) were 100 to 500 nM and less than 50 nM, respectively.

Regarding `Cc1c(Cl)cc(C(C)Nc2ncnc3[nH]cnc23)c(-c2cccc(F)c2)c1-n1cnnc1` (centres unmarked) [Example 11, N-{1-[4-chloro-3′-fluoro-5-methyl-6-(4H-1,2,4-triazol-4-yl)biphenyl-2-yl]ethyl}-9H-purin-6-amine], the IC50 in experiment [1] was less than 100 nM; on PI3Kδ (p110δ/p85α) it was less than 50 nM.

On to `Cc1c(Cl)cc(C(C)Nc2ncnc3[nH]cnc23)c(-c2cccc(F)c2)c1N(S(C)(=O)=O)S(C)(=O)=O` (centres unmarked) [Example 12, N-{4-chloro-3′-fluoro-3-methyl-6-[1-(9H-purin-6-ylamino)ethyl]biphenyl-2-yl}-N-(methylsulfonyl)methanesulfonamide], for which the figures for the IC50 (in experiment [1]; against PI3Kδ (p110δ/p85α)) were less than 100 nM and less than 50 nM, respectively.

For the compound `Cc1c(Cl)cc(C(C)Nc2ncnc3[nH]cnc23)c(-c2ccccc2)c1-c1cc(F)nc(F)c1` (centres unmarked) [Example 13, N-{1-[4-chloro-6-(2,6-difluoropyridin-4-yl)-5-methylbiphenyl-2-yl]ethyl}-9H-purin-6-amine], the IC50 in experiment [1] is less than 100 nM; at PI3Kδ (p110δ/p85α), less than 50 nM.

With `Cc1c(Cl)cc(C(C)Nc2ncnc3[nH]cnc23)c(-c2ccccc2)c1-c1ccc(S(C)(=O)=O)cc1` (centres unmarked) [Example 14, N-{1-[5′-chloro-6′-methyl-4-(methylsulfonyl)-1,1′:2′,1″-terphenyl-3′-yl]ethyl}-9H-purin-6-amine], the IC50 in experiment [1] was less than 100 nM; against PI3Kδ (p110δ/p85α), less than 50 nM.

For `Cc1c(Cl)cc(C(C)Nc2ncnc3[nH]cnc23)c(-c2ccccc2)c1-c1cnc(N(C)C)nc1` (centres unmarked) [Example 15, N-(1-{4-chloro-6-[2-(dimethylamino)pyrimidin-5-yl]-5-methylbiphenyl-2-yl}ethyl)-9H-purin-6-amine], the values for the IC50 (in experiment [1]; against PI3Kδ (p110δ/p85α)) were less than 100 nM and less than 50 nM, respectively.

As to `Cc1c(Cl)cc(C(C)Nc2ncnc3[nH]cnc23)c(-c2ccccc2)c1-c1ccc(C(=O)NC2CC2)cc1` (centres unmarked) [Example 16, 5′-chloro-N-cyclopropyl-6′-methyl-3′-[1-(9H-purin-6-ylamino)ethyl]-1,1′:2′,1″-terphenyl-4-carboxamide], the half-maximal inhibitory concentration (IC50) in experiment [1] was less than 100 nM; on PI3Kδ (p110δ/p85α), less than 50 nM.

With `Cc1c(Cl)cc(C(C)Nc2ncnc3[nH]cnc23)c(-c2ccccc2)c1-c1cnc(N)nc1` (centres unmarked) [Example 17, N-{1-[6-(2-aminopyrimidin-5-yl)-4-chloro-5-methylbiphenyl-2-yl]ethyl}-9H-purin-6-amine], the IC50 in experiment [1] was less than 100 nM; against PI3Kδ (p110δ/p85α), less than 50 nM.

Turning to `COc1c(C(C)Nc2ncnc3[nH]cnc23)cc(Cl)c(C)c1N1CCCC1=O` (centres unmarked) [Example 18, 1-{3-Chloro-6-methoxy-2-methyl-5-[1-(9H-purin-6-ylamino)ethyl]phenyl}pyrrolidin-2-one], the IC50 in experiment [1] fell in the range of 100 to 500 nM; against PI3Kδ (p110δ/p85α) it was 250 to 500 nM.

`Cc1c(Cl)cc(C(C)Nc2ncnc3[nH]cnc23)c(-c2cc(F)cc(F)c2)c1C(N)=O` (centres unmarked) [Example 19, 4-Chloro-3′,5′-difluoro-3-methyl-6-[1-(9H-purin-6-ylamino)ethyl]biphenyl-2-carboxamide]: the half-inhibitory concentration (IC50) in experiment [1] was less than 100 nM; on PI3Kδ (p110δ/p85α) it was less than 50 nM.

Consider `COc1c(C(C)Nc2ncnc3[nH]cnc23)cc(Cl)c(C)c1-c1cnc(N(C)C)nc1` (centres unmarked) [Example 20, N-(1-{5-chloro-3-[2-(dimethylamino)pyrimidin-5-yl]-2-methoxy-4-methylphenyl}ethyl)-9H-purin-6-amine], for which the IC50 in experiment [1] was 100 to 500 nM; at PI3Kδ (p110δ/p85α), less than 50 nM.

For the compound `COc1c(C(C)Nc2ncnc3[nH]cnc23)cc(Cl)c(C)c1-c1ccnn1C` (centres unmarked) [Example 21, N-{1-[5-chloro-2-methoxy-4-methyl-3-(1-methyl-1H-pyrazol-5-yl)phenyl]ethyl}-9H-purin-6-amine], the IC50 in experiment [1] is less than 100 nM; against PI3Kδ (p110δ/p85α), less than 50 nM.

For `COc1c(C(C)Nc2ncnc3[nH]cnc23)cc(Cl)c(C)c1-c1c(C)noc1C` (centres unmarked) [Example 22, N-{1-[5-chloro-3-(3,5-dimethylisoxazol-4-yl)-2-methoxy-4-methylphenyl]ethyl]-9H-purin-6-amine], the IC50 in experiment [1] is less than 100 nM; against PI3Kδ (p110δ/p85α), less than 50 nM.

In the case of `COc1ncc(-c2c(C)c(Cl)cc(C(C)Nc3ncnc4[nH]cnc34)c2OC)cn1` (centres unmarked) [Example 23, N-{1-[5-chloro-2-methoxy-3-(2-methoxypyrimidin-5-yl)-4-methylphenyl]ethyl}-9H-purin-6-amine], the IC50 in experiment [1] is less than 100 nM; at PI3Kδ (p110δ/p85α), less than 50 nM.

Consider `Cc1c(Cl)cc(C(C)Nc2ncnc3[nH]cnc23)c(-c2ccccc2)c1-c1ccc(C#N)cc1` (centres unmarked) [Example 24, 5′-chloro-6′-methyl-3′-[1-(9H-purin-6-ylamino)ethyl]-1,1′:2′,1″-terphenyl-4-carbonitrile], for which the IC50 in experiment [1] is 100 to 500 nM; against PI3Kδ (p110δ/p85α), less than 50 nM.

Consider `COc1ncc(-c2c(C)c(Cl)cc(C(C)Nc3ncnc4[nH]cnc34)c2-c2ccccc2)cn1` (centres unmarked) [Example 25, N-{1-[4-chloro-6-(2-methoxypyrimidin-5-yl)-5-methylbiphenyl-2-yl]ethyl}-9H-purin-6-amine], for which the half-inhibitory concentration (IC50) was less than 100 nM in experiment [1] and less than 50 nM at PI3Kδ (p110δ/p85α).

`CC(=O)Nc1ccc(-c2c(C)c(Cl)cc(C(C)Nc3ncnc4[nH]cnc34)c2-c2ccccc2)cc1` (centres unmarked) [Example 26, N-{5′-chloro-6′-methyl-3′-[1-(9H-purin-6-ylamino)ethyl]-1,1′:2′,1″-terphenyl-4-yl}acetamide]: the 50% inhibitory concentration (IC50) in experiment [1] was less than 100 nM; against PI3Kδ (p110δ/p85α), less than 50 nM.

With `COc1c(C(C)Nc2ncnc3[nH]cnc23)cc(Cl)c(C)c1-c1ccc(NC(C)=O)cc1` (centres unmarked) [Example 27, N-{3′-chloro-6′-methoxy-2′-methyl-5′-[1-(9H-purin-6-ylamino)ethyl]biphenyl-4-yl}acetamide], the half-maximal inhibitory concentration (IC50) was 100 to 500 nM in experiment [1] and less than 50 nM against PI3Kδ (p110δ/p85α).

For `COc1c(C(C)Nc2ncnc3[nH]cnc23)cc(Cl)c(C)c1-c1cncc(C#N)c1` (centres unmarked) [Example 53, 5-{3-chloro-6-methoxy-2-methyl-5-[1-(9H-purin-6-ylamino)ethyl]phenyl}nicotinonitrile], the IC50 in experiment [1] was less than 100 nM.

On to `Cc1c(Cl)cc(C(C)Nc2ncnc3[nH]cnc23)c(-c2cccc(F)c2)c1-c1cnn(C)c1` (centres unmarked) [Example 73, N-{1-[4-chloro-3′-fluoro-5-methyl-6-(1-methyl-1H-pyrazol-4-yl)biphenyl-2-yl]ethyl}-9H-purin-6-amine], for which the IC50 in experiment [1] was less than 100 nM.

With `COc1c(C(C)Nc2ncnc3[nH]cnc23)cc(Cl)c(C)c1-c1cc(C(F)(F)F)ccc1F` (centres unmarked) [Example 86, N-{1-[5-chloro-2′-fluoro-2-methoxy-6-methyl-5′-(trifluoromethyl)biphenyl-3-yl]ethyl]-9H-purin-6-ami], the half-maximal inhibitory concentration (IC50) in experiment [1] is greater than 1000 nM.
